Measured values taken from paper PMC10485906, “Development of a Dihydroquinoline–Pyrazoline GluN2C/2D-Selective Negative Allosteric Modulator of the N-Methyl-D-aspartate Receptor” (ACS Chemical Neuroscience, 2023).
“And” between values parts separate entries of the source, which are not always exact repeats. Identical values can stand only once. Marks after values point to notes of the source that are not given here.

Key:
CYP3A4 = CYP3A4 (Homo sapiens, UniProt P08684); assay: biochemical
Method: CYP450 inhibition assays utilized microsomes from insect cells that express recombinant human CYP2D6 and CYP3A4 isoforms (Corning) with substrates of CYP2D6 (3-[2-(N,N-diethyl-N-methylammonium)-ethyl]-7-methoxy-4-methylcoumarin iodide, AMMC) and CYP3A4 (7-benzyloxy-4-trifluoromethylcoumarin, BFC) capable of producing fluorescent metabolites.[51],[52] […] A 100 mM sodium phosphate buffer was prepared and adjusted to a pH 7.4. In a separate falcon tube, a 2× enzyme–substrate (E–S) solution was prepared in phosphate buffer. The final concentrations of CYP2D6 and AMMC were 10 nM and 4 μM, respectively. The final concentrations of CYP3A4 and BFC were 20 nM and 40 μM, respectively. In a separate falcon tube, 2X solutions of the NADPH regenerating system (NRS) were prepared in phosphate buffer. The final concentrations for each NRS component in the corresponding assays were as follows: (1) CYP2D6 assay = 0.008 mM NADPH, 3.3 mM glucose-6-phosphate, and 0.4 U of glucose-6-phosphate dehydrogenase/mL and (2) CYP3A4 assay = 2.45 mM NADPH, 24.7 mM glucose-6-phosphate, and 1.25 U of glucose-6-phosphate dehydrogenase/mL.
Both enzymatic assays were conducted in a 96-well microtiter plate (Black, Corning Costar) with a final volume of 100 μL per well. Preparation of each plate began with the addition of 74 μL of the 2× E–S solution in the first well and 50 μL to all remaining wells (2–11) in the same row. […] 3-Fold serial dilutions of the test compounds were subsequently conducted by removing 25 μL from the first well and adding it to the second, followed by removing 25 μL from the second well and adding it to the third, and so forth until the 10th row. This procedure provided final concentrations for the test compound ranging from 100 to 0.01 μM across the same row (50 μL total for each well). Well 11 contained no test compound (0% inhibition and 100% activity). Well 12 contained 50 μL of substrate and test compound (100 μM) absent from the enzyme (0% activity, 100% inhibition). Wells 11 and 12 were used as controls for background fluorescence as described below. Each plate was then incubated for 30 min at 37 °C. After incubation was complete, reactions were initiated by the addition of 50 μL of 2X NRS to wells 1–12 (final well volume of 100 μL). Fluorescence measurements were immediately (<1 min) taken using a microplate reader (BioTek Synergy Neo 2). CYP2D6 was monitored at Ex/Em = 410/460 nm, and CYP3A4 was monitored at Ex/Em = 410/538 nm. Next, measurements were conducted in kinetic mode with scans every 5 min for 60 min. Two time points (30 and 60 min) were then chosen in the linear phase of the kinetic graph (reaction progression curve), and the corresponding relative fluorescence units (RFUs) at these time points were used to determine the rate of change in fluorescence according to the following equations [drawing 6] 3 [drawing 7] 4 [drawing 8] 5 where eq 3 defines the difference in RFUs between the 60 and 30 min time points, eq 4 normalizes the background-adjusted ΔRFU to no inhibitor control, and eq 5 converts % inhibition to % activity.
The resulting data were then exported and analyzed using Graph Pad Prism v7. The concentration of each test compound required to inhibit 50% substrate metabolism (IC50) was subsequently calculated from the resulting 10-point concentration–response curves (normalized fluorescence versus log[inhibitor]) using four-parameter logistic nonlinear regression (see Figure S4B for a representative example).

GluN1/GluN2C [1] = biological target: GluN1/GluN2C (Rattus norvegicus, UniProt P35439+Q00961); assay: Two-electrode voltage-clamp recordings, Xenopus laevis oocytes, GluN1/GluN2C; assay type: cell-based; parameters: GluN2B (NM_012574.1), GluN2C (NM_012575.3), and GluN2D (NM_022797.2) were provided by; expressed in transfected cells; host or cells: Xenopus laevis oocytes (cRNA injection); conditions: 100 μM glutamate, 30 μM glycine; for IC50: read-out: IC50 GluN2C [95% CI]; for remaining activity at 30 µM: 30 μM test compound, mean ± SEM, read-out: I 30 μM / I control GluN2C
Method: (§1) All target compounds were evaluated for NMDAR antagonism using two-electrode voltage-clamp recordings from Xenopus laevis oocytes coexpressing recombinant GluN1 and GluN2A-D subunits (Table 1).[32],[42],[33] All analogues were assessed as either a racemic (2b, 2e–2r) or diastereomeric (2d) mixture to simplify purification and streamline in vitro analysis. […] Moreover, as illustrated by the significant loss of NMDAR activity observed with nitrile 2e, the DQP allosteric site necessitated an H-bond donor/acceptor relationship at the carboxylate position. […] The loss of NMDAR activity observed with the trifluoro analogue 2j (Table S1) reinforced the necessity for an H-bond donor/acceptor relationship to maintain allosteric binding and established that fluorine substitution alone is ineffective. […] A single methyl substitution of the amide in compound 2q improved selectivity against GluN2A and had similar potency as 2a, whereas dual methyl substitution reduced potency (2r). We expect that this is likely due to the ability of the […] of the amide to accept hydrogen bonds while the amide can readily donate a proton.
(§2) Unfertilized Xenopus laevis oocytes were obtained from Ecocyte (Austin, TX), or ovaries were purchased from Xenopus 1 (Dexter, MI) and oocytes prepared as previously described.[42],[47] Two-electrode voltage-clamp recordings were performed on oocytes expressing recombinant rat GluN1/GluN2A, GluN1/GluN2B, GluN1/GluN2C, or GluN1/GluN2D. cDNAs for rat GluN1-1a (referred to as GluN1; NCBI Reference Sequence NM_017010.2), GluN2A (NM_012573.4), GluN2B (NM_012574.1), GluN2C (NM_012575.3), and GluN2D (NM_022797.2) were provided by Dr. S. Heinemann from the Salk Institute, Dr. S. Nakanishi from Kyoto University, and Dr. P. Seeburg from the University of Heidelberg. Oocyte isolation, cRNA synthesis, and cRNA injections were performed as previously described.[32],[33],[47] Briefly, Xenopus laevis oocytes were injected with 5–10 ng of cRNA in RNase-free water with the GluN1:GluN2 ratio ranging from 1:1 to 1:5. Oocytes were incubated at 15–19 °C in Barth’s solution consisting of (in mM) 88 NaCl, 1 KCl, 2.4 NaHCO3, 10 HEPES, 0.82 MgSO4, 0.33 Ca(NO3)2, and 0.41 CaCl2 supplemented with 100 μg/mL gentamycin, 40 μg/mL streptomycin, and 50 μg/mL penicillin. Recordings were performed 2–4 days after injection with extracellular recording solution containing (in mM) 90 NaCl, 1 KCl, 10 HEPES, 0.5 BaCl2, and 0.01 EDTA at pH 7.4 adjusted with NaOH. To prevent a gradual increase in current response over the course of the experiment, some oocytes expressing GluN1/GluN2A were injected with 20–50 nL of 2–50 mM K-BAPTA. Concentration–response curves for test compounds were generated by applying a maximally effective concentration of glutamate (100 μM) and glycine (30 μM), followed by glutamate and glycine with variable concentrations of test compounds up to 30 μM. The test compounds were prepared as 20 mM stock solutions in DMSO and diluted to the final concentration in recording solution. The DMSO content was 0.05–0.5% (v/v). […] Methods for off-target analysis are given in the Supporting Information.
(§3) Confidence intervals were determined for the log(IC50). The time course of relaxation during inhibitor application or deactivation following rapid removal of NMDA or glutamate was fitted by the equation [drawing 5] 2

GluN1/GluN2C [2] = biological target: GluN1/GluN2C (Rattus norvegicus, UniProt Q00961); assay: as above; assay type: cell-based; parameters: GluN2B (NM_012574.1), GluN2C (NM_012575.3), and GluN2D (NM_022797.2) were provided by; expressed in transfected cells; host or cells: Xenopus laevis oocytes (cRNA injection); conditions: for I3 μM/Icontrol GluN2C: tested at 3 μM; for I3 μM/Icontrol GluN2C / I / I control GluN2C: 100 μM glutamate, 30 μM glycine; for I / I control GluN2C: tested at 10 μM (footnote b)
Method: as §1, §2, §3

GluN1/GluN2A [3] = biological target: T1, GluN1/GluN2A (Rattus norvegicus, UniProt P35439+Q00959); assay: Two-electrode voltage-clamp recordings, Xenopus laevis oocytes, GluN1/GluN2A; assay type: cell-based; conditions: 100 μM glutamate, 30 μM glycine; for IC50: read-out: IC50 GluN2A [95% CI]; for remaining activity at 30 µM: 30 μM test compound, mean ± SEM, read-out: I 30 μM / I control GluN2A
T1 construct: expressed in transfected cells; host or cells: Xenopus laevis oocytes (cRNA injection)
Method: as §1, §2, §3

GluN1/GluN2A [4] = biological target: T2, GluN1/GluN2A (Rattus norvegicus, UniProt Q00959); assay: as above; assay type: cell-based; conditions: mean ± SEM; for I3 μM/Icontrol GluN2A: tested at 3 μM; for I3 μM/Icontrol GluN2A / I / I control GluN2A: 100 μM glutamate, 30 μM glycine; for I / I control GluN2A: tested at 10 μM (footnote b)
T2 construct: expressed in transfected cells; host or cells: Xenopus laevis oocytes (cRNA injection)
Method: as §1, §2, §3

GluN1/GluN2D [5] = biological target: GluN1/GluN2D (Rattus norvegicus, UniProt P35439+Q62645); assay: Two-electrode voltage-clamp recordings, Xenopus laevis oocytes, GluN1/GluN2D; assay type: cell-based; parameters: GluN2B (NM_012574.1), GluN2C (NM_012575.3), and GluN2D (NM_022797.2) were provided by; expressed in transfected cells; host or cells: Xenopus laevis oocytes (cRNA injection); conditions: 100 μM glutamate, 30 μM glycine; for IC50: read-out: IC50 GluN2D [95% CI]; for remaining activity at 30 µM: 30 μM test compound, mean ± SEM, read-out: I 30 μM / I control GluN2D
Method: as §1, §2, §3

GluN1/GluN2D [6] = biological target: GluN1/GluN2D (Rattus norvegicus, UniProt Q62645); assay: as above; assay type: cell-based; parameters: GluN2B (NM_012574.1), GluN2C (NM_012575.3), and GluN2D (NM_022797.2) were provided by; expressed in transfected cells; host or cells: Xenopus laevis oocytes (cRNA injection); conditions: for Selectivity 2A IC50 / 2D IC50: GluN2D over GluN2A; for Selectivity 2B IC50 / 2D IC50: GluN2D over GluN2B; for I3 μM/Icontrol GluN2D: tested at 3 μM; for I3 μM/Icontrol GluN2D / I / I control GluN2D: 100 μM glutamate, 30 μM glycine; for I / I control GluN2D: tested at 10 μM (footnote b)
Method: as §1, §2, §3

[7] = mean ± SEM, listed as racemic 2i
[8] = 1 µM compound, 100 µM glutamate, 30 µM glycine, mean ± SEM

CYP3A4, sequence (P08684 whole entry): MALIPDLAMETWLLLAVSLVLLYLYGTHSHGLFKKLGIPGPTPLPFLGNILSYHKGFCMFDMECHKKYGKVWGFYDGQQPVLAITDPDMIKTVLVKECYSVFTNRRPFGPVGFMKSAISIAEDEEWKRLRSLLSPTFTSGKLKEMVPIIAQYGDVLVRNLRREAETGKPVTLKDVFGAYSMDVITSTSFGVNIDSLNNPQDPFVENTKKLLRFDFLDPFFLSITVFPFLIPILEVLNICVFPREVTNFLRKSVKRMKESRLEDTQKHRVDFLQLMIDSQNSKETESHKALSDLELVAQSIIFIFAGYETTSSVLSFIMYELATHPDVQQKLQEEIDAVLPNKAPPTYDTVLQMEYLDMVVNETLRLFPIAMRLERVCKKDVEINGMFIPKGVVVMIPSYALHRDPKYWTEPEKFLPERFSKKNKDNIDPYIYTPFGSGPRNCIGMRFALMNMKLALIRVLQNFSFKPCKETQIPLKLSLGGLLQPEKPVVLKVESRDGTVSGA
GluN1/GluN2C (Rattus norvegicus, UniProt Q00961), sequence (Q00961 20-1237, other chains not shown): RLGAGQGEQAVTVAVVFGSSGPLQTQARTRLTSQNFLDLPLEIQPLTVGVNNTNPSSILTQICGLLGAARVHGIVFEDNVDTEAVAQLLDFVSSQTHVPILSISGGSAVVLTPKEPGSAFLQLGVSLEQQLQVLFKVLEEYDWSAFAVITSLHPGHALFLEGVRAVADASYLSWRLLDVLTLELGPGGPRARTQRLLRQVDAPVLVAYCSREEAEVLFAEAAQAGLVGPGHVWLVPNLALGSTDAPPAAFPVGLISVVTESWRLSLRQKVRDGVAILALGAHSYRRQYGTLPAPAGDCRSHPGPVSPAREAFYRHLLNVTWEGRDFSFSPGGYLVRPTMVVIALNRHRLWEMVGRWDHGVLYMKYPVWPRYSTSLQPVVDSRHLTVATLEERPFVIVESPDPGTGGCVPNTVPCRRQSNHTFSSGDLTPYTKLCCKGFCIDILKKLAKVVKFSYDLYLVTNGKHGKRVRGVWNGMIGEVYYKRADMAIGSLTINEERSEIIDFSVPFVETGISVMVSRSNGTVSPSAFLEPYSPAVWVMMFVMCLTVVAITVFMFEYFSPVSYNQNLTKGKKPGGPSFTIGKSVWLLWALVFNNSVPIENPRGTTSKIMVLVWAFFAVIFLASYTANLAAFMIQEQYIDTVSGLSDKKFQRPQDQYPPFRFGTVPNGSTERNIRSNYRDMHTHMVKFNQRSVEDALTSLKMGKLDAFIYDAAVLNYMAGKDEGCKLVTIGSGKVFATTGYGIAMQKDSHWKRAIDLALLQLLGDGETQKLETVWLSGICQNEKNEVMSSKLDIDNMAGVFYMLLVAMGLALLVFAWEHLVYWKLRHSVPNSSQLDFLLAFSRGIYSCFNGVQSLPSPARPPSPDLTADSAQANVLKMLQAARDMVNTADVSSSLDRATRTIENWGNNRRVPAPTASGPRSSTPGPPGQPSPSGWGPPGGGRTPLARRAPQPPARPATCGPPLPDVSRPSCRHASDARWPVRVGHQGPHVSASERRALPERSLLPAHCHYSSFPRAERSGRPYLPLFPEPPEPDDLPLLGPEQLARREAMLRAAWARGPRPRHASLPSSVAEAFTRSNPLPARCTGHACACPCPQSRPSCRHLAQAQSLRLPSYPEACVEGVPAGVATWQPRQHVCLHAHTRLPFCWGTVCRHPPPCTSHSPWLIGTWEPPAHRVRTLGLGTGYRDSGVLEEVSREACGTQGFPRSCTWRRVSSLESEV
GluN1/GluN2C (Rattus norvegicus, UniProt P35439+Q00961), sequence (Q00961 20-1237, other chains not shown): as above
GluN1/GluN2D (Rattus norvegicus, UniProt P35439+Q62645), sequence (Q62645 28-1323, other chains not shown): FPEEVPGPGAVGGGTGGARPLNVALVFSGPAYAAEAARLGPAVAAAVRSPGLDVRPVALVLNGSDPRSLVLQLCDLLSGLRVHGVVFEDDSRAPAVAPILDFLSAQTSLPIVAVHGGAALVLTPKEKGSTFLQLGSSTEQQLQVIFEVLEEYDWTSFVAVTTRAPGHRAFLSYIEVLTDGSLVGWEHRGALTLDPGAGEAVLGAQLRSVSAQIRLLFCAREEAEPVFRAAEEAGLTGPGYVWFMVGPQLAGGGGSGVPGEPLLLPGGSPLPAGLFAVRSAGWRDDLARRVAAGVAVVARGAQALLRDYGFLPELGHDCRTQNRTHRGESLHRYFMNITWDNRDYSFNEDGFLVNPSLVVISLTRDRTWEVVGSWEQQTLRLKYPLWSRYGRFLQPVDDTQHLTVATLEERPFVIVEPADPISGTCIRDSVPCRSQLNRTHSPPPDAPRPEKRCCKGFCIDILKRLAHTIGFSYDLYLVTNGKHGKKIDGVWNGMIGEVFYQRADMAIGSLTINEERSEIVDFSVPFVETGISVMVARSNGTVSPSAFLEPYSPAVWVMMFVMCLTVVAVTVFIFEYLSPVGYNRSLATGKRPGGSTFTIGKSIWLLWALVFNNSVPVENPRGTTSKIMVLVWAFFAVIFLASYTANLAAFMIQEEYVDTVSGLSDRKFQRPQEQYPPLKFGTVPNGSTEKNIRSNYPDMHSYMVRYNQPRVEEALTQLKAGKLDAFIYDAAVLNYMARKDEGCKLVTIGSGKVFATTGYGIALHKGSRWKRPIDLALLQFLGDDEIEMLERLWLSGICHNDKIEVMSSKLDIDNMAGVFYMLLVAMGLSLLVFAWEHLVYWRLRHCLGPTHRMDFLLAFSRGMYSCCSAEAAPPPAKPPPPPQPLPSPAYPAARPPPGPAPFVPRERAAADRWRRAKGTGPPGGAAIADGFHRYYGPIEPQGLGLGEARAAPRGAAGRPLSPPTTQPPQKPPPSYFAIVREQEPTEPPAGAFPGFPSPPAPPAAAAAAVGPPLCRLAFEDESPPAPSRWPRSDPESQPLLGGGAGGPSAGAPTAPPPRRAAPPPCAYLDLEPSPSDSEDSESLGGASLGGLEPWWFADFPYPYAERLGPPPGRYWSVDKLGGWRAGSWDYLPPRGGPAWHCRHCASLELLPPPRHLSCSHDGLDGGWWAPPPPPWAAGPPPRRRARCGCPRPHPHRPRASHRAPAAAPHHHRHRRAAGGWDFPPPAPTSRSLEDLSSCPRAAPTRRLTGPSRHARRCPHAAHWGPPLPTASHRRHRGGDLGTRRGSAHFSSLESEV
GluN1/GluN2D (Rattus norvegicus, UniProt Q62645), sequence (Q62645 28-1323, other chains not shown): as above
T2 sequence (Q00959 23-1464, other chains not shown): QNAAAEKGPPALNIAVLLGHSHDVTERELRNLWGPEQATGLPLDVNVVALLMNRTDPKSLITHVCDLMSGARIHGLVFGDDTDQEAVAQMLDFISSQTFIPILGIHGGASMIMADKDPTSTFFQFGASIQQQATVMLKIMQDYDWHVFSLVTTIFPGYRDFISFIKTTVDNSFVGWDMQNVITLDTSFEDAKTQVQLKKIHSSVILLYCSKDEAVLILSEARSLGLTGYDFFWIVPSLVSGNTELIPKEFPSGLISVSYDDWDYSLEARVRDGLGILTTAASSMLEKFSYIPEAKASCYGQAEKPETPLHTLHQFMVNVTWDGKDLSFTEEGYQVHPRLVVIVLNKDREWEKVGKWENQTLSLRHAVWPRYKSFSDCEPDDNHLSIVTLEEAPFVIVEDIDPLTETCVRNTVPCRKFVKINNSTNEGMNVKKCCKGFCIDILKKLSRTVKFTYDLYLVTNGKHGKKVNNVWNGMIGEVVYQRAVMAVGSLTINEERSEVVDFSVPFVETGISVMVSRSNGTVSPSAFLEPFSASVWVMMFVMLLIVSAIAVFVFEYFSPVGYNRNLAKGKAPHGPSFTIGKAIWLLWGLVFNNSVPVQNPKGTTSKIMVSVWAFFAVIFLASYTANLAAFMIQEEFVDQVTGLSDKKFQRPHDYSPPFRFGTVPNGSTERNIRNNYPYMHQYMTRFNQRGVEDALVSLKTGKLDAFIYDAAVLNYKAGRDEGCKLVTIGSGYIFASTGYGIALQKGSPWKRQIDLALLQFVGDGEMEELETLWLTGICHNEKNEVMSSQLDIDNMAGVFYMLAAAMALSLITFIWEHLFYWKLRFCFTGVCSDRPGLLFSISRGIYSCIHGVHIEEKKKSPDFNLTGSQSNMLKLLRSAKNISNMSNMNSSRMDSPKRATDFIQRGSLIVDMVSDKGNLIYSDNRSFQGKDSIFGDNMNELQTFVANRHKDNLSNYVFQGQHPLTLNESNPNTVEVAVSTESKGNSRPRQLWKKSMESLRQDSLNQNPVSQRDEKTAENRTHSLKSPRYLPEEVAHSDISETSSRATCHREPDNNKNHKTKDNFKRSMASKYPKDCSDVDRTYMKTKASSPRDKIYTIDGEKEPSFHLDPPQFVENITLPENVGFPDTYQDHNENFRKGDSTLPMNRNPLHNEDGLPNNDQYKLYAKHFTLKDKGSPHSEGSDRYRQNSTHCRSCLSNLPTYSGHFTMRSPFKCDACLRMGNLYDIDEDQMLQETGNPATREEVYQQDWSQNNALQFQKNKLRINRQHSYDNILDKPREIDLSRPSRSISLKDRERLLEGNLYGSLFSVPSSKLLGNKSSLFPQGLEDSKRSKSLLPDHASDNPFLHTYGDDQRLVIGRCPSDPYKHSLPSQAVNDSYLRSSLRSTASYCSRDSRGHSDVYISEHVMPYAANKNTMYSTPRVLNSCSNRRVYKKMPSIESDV

SMILES	IC50 (CYP3A4) [µM]	IC50 (GluN1/GluN2C [1]) [µM]	IC50 (GluN1/GluN2A [3]) [µM]	IC50 (GluN1/GluN2D [5]) [µM]	Selectivity 2A IC50 / 2D IC50 (GluN1/GluN2D [6]) [fold]	Selectivity 2B IC50 / 2D IC50 (GluN1/GluN2D [6]) [fold]	remaining activity at 30 µM (GluN1/GluN2C [1]) [%]	remaining activity at 30 µM (GluN1/GluN2A [3]) [%]	remaining activity at 30 µM (GluN1/GluN2D [5]) [%]	other results
O=C(O)CCC(=O)N1N=C(c2c(-c3ccc(Cl)cc3)c3ccccc3[nH]c2=O)CC1c1ccc(Cl)cc1 (stereo not shown) [2a]	17 ± 3.4	–	–	–	–	–	–	–	–	–
O=C(O)CC(F)(F)C(=O)N1N=C(c2c(-c3ccc(Cl)cc3)c3ccccc3[nH]c2=O)CC1c1ccc(Cl)cc1 (stereo not shown) [2i]	> 20	0.35	5.6	0.13	43	123	–	–	–	I3 μM/Icontrol GluN2C (GluN1/GluN2C [2]; mean ± SEM): 13 ± 2.5% and 13 ± 2.5 ^b (2,12) %; I3 μM/Icontrol GluN2C (GluN1/GluN2C [2]; [7]): 13 ± 2.5 (2, 12) %; I3 μM/Icontrol GluN2A (GluN1/GluN2A [4]): 61 ± 2.4% and 61 ± 2.4 ^b (2,10) %; I3 μM/Icontrol GluN2A (GluN1/GluN2A [4]; listed as racemic 2i): 61 ± 2.4 (2, 10) %; I3 μM/Icontrol GluN2D (GluN1/GluN2D [6]; mean ± SEM): 12 ± 1.8% and 12 ± 1.8 ^b (2,16) %; I3 μM/Icontrol GluN2D (GluN1/GluN2D [6]; [7]): 12 ± 1.8 (2, 16) %
NC(=O)CC(F)(F)C(=O)N1N=C(c2c(-c3ccc(Cl)cc3)c3ccccc3[nH]c2=O)CC1c1ccc(Cl)cc1 (stereo not shown) [2k]	2 ± 0.4	0.38	5.8	0.24	24	13	–	–	–	I3 μM/Icontrol GluN2C (GluN1/GluN2C [2]; mean ± SEM): 22 ± 5.2 ^b (3,16) %; I3 μM/Icontrol GluN2A (GluN1/GluN2A [4]): 35 ± 6.5 ^b (3,9) %; I3 μM/Icontrol GluN2D (GluN1/GluN2D [6]; mean ± SEM): 16 ± 2.3 ^b (3,17) %
CCOC(=O)CC(F)(F)C(=O)N1N=C(c2c(-c3ccc(Cl)cc3)c3ccccc3[nH]c2=O)CC1c1ccc(Cl)cc1 (stereo not shown) [2l]	7.8 ± 0.1	–	–	–	–	–	93 ± 0.7	100 ± 3.2	87 ± 0.8	–
CC(C)OC(=O)CC(F)(F)C(=O)N1N=C(c2c(-c3ccc(Cl)cc3)c3ccccc3[nH]c2=O)CC1c1ccc(Cl)cc1 (stereo not shown) [2m]	6.3 ± 1.1	–	–	–	–	–	90 ± 4.3	97 ± 2.3	92 ± 3.1	–
O=C(CC(F)(F)C(=O)N1N=C(c2c(-c3ccc(Cl)cc3)c3ccccc3[nH]c2=O)CC1c1ccc(Cl)cc1)OCC1CC1 (stereo not shown) [2n]	6.7 ± 1.2	–	–	–	–	–	93 ± 4.2	100 ± 1.3	92 ± 2.7	–
CC(C)(C)COC(=O)CC(F)(F)C(=O)N1N=C(c2c(-c3ccc(Cl)cc3)c3ccccc3[nH]c2=O)CC1c1ccc(Cl)cc1 (stereo not shown) [2o]	12 ± 0.04	–	–	–	–	–	–	–	–	I / I control GluN2C (GluN1/GluN2C [2]; mean ± SEM): 87 ± 0.8%; I / I control GluN2A (GluN1/GluN2A [4]): 97 ± 2.2%; I / I control GluN2D (GluN1/GluN2D [6]; mean ± SEM): 82 ± 0.7%
O=C(CC(F)(F)C(=O)N1N=C(c2c(-c3ccc(Cl)cc3)c3ccccc3[nH]c2=O)CC1c1ccc(Cl)cc1)OCc1ccccc1 (stereo not shown) [2p]	> 20	–	–	–	–	–	98 ± 0.95	105 ± 0.72	96 ± 0.53	–
CNC(=O)CC(F)(F)C(=O)N1N=C(c2c(-c3ccc(Cl)cc3)c3ccccc3[nH]c2=O)CC1c1ccc(Cl)cc1 (stereo not shown) [2q]	7.7 ± 1.7	0.67	37	0.41	90	49	–	–	–	I / I control GluN2C (GluN1/GluN2C [2]; mean ± SEM): 16 ± 1.6 ^b (3, 20) %; I / I control GluN2A (GluN1/GluN2A [4]): 83 ± 3.9 ^b (2,12) %; I / I control GluN2D (GluN1/GluN2D [6]; mean ± SEM): 12 ± 1.5 ^b (3, 18) %
CN(C)C(=O)CC(F)(F)C(=O)N1N=C(c2c(-c3ccc(Cl)cc3)c3ccccc3[nH]c2=O)CC1c1ccc(Cl)cc1 (stereo not shown) [2r]	> 20	4.1	–	1.4	–	–	–	–	–	I / I control GluN2C (GluN1/GluN2C [2]; mean ± SEM): 28 ± 2.2 ^b (4,20) %; I / I control GluN2A (GluN1/GluN2A [4]): 70 ± 3.9 ^b (3,13) %; I / I control GluN2D (GluN1/GluN2D [6]; mean ± SEM): 19 ± 1.6 ^b (3,14) %
O=C(O)CC(F)(F)C(=O)N1N=C(c2c(-c3ccc(Cl)cc3)c3ccccc3[nH]c2=O)C[C@H]1c1ccc(Cl)cc1 [(S)-(−)-2i]	–	0.061	4.7	0.035	134	457	–	–	–	% control GluN1/GluN2C (GluN1/GluN2C [2]; [8]): 16 ± 2.9%; selectivity for GluN2C-containing NMDARs compared to GluN2A- and GluN2B-containing receptors (GluN1/GluN2C [2]; abstract): > 100 fold; I3 μM/Icontrol GluN2C (GluN1/GluN2C [2]; mean ± SEM): 13 ± 2.6 (3, 16) %; % control GluN1/GluN2A (GluN1/GluN2A [4]; 1 µM compound, 100 µM glutamate, 30 µM glycine): 74 ± 2.1%; I3 μM/Icontrol GluN2A (GluN1/GluN2A [4]): 67 ± 2.0 (3, 14) %; % control GluN1/GluN2D (GluN1/GluN2D [6]; [8]): 4.3 ± 0.73%; fold more potent than (S)-2a (GluN1/GluN2D [6]; abstract): 5 fold; I3 μM/Icontrol GluN2D (GluN1/GluN2D [6]; mean ± SEM): 3.8 ± 0.60 (4, 25) %
